The text below walks through data of US20230057133A1, “COMPOUND FOR THE TREATMENT AND PREVENTION OF CENTRAL NERVOUS SYSTEM DISORDERS” (ABAXYS THERAPEUTICS, priority 2019, published 2023).

Molecules are shown by their SMILES.

What all share (type): in vivo, zebrafish
Test [1] deals with zebra fish larvae. Kind of test: Model of epileptic activity: pentetrazole-induced locomotor activity of zebra fish larvae. The method, then:
(§1) Compound was tested in zebrafish paradigms reaction to environmental stimuli, epileptic activity and dopaminergic hyperactivity. Zebrafish used in present studies were raised in regular conditions of housing in tanks of appropriate size and circadian rhythm (12:12 photoperiod, light/darkness). The aqueous medium used for the maintenance and experimental conditions was Instant Ocean®. The water maintained between at 27° C. or 29° C., pH between 7.2-7.5 and a conductivity value between 480-520 μS. Zebrafish embryos were placed in sterile petri dishes before being transferred to plates after the hatching.
(§2) For experimental studies, larvae of up to 5 dpf were placed in flat bottom 96-well plates. At the treatment time, the medium was replaced by 150 μL fresh medium. Pentetrazole (PTZ) and/or Cmpd1 (treatment), or vehicle (control) were added (up to 210-240 μL) to the wells followed by video recording.
(§3) Locomotion of larvae was recorded using Noldus daniovisio system equipped with infrared light detection. Ethovision XT15 software controlled the temperature of plate (28° C.) and chamber light conditions. The experimental recording was done with a cycle of light period (20 min) followed by dark period ([…]). After recording data were analysed using Ethovision XT15 software package. The distance moved by larvae was calculated for each period of 2 min recording (FIGS. 1 to 6 and 10) or as accumulated value of distance at 2 min (initiation), at 4 min at 10 min and at 20 min (switch to darkness) or at 60 min (end of recording) (FIGS. 7 and 8).
(§4) All compounds were dissolved in medium or medium containing DMSO at indicated concentrations.

The test system of test [2] is zebra fish larvae. Kind of test: Model of hyperdopaminergic activity: apomorphine-induced locomotor activity of zebra fish larvae. As to the method: as §1, §2, §3, §4
The same methods as disclosed in Example 1 ware carried out for Example 2, except that the pentetrazole was replaced by apomorphine (APO).

The subject of test [3] is zebra fish larvae. Kind of test: Locomotion of zebra fish larvae treated with compound alone, light period followed by dark period. Conditions: Cmpd1 100 μM alone versus vehicle; FIGS. 5 and 10. The method, then: as §1, §2
Locomotion of larvae was recorded using Noldus daniovisio system equipped with infrared light detection. […] After recording data were analysed using Ethovision XT15 software package. The distance moved by larvae was calculated for each period of 2 min recording (FIGS. 1 to 6 and 10) or as accumulated value of distance at 2 min (initiation), at 4 min at 10 min and at 20 min (switch to darkness) or at 60 min (end of recording) (FIGS. 7 and 8). […]

For `C1CCc2nnnn2CC1` [pentetrazole, reference compound], in the test with zebra fish larvae [1] (pentetrazole 10 mM alone, larvae up to 5 dpf, light 20 min then dark 45 min, FIGS. 1, 2, 6), the “locomotor activity (distance moved) versus vehicle” value was “clear increase of locomotor activity in both light and dark conditions”.
Regarding `CCOC(=O)C1CCN(C(=O)[C@H](C)N(c2ccc(C)cc2)S(C)(=O)=O)CC1` [Cmpd1, ethyl 1-(N-(methylsulfonyl)-N-(p-tolyl)alanyl)piperidine-4-carboxylate], the “locomotion level compared with vehicle treated zebra fishes” value with zebra fish larvae [1] (Cmpd1 100 μM, FIG. 2 open circles and FIG. 7) is recorded as “stabilizes locomotion to levels close to normal locomotion”. Also, the “locomotor activity induced by pentetrazole alone (distance moved)” value in the test on zebra fish larvae [1] (co-treatment Cmpd1 100 μM + pentetrazole 10 mM, FIG. 2 and FIG. 7) is on record as “decrease of the locomotor activity”. Also, the “conclusion of the epileptic activity model” value in the test with zebra fish larvae [1] (pentetrazole model, Cmpd1 100 μM) was “anti-epileptic activity”. Also, the “locomotion level compared with vehicle treated zebra fish” value in the test on zebra fish larvae [2] (FIG. 5 and FIGS. 9 and 10) is recorded as “stabilizes locomotion to levels close to normal locomotion”. In the test on zebra fish larvae [2] (apomorphine model), the “conclusion of the hyperdopaminergic activity model” value was “stabilizer of the hyperdopaminergic activity”. Besides, the “locomotor activity induced by apomorphine alone (distance moved)” value in the test with zebra fish larvae [2] (co-treatment Cmpd1 100 μM + apomorphine 55 μM, FIG. 9) is recorded as “decrease of the locomotor activity”; with zebra fish larvae [2] (co-treatment Cmpd1 100 μM + apomorphine 75 μM, FIG. 4), “decrease of the locomotor activity”. Also, in the test on zebra fish larvae [2] (first period of the assay, up to ~20 min, FIG. 9), the “apomorphine-induced locomotion activity, time course” value was “reduces apomorphine-induced locomotion activity strongly”. Further, in the test with zebra fish larvae [3], the “locomotion activity and peak due to change to dark condition” value was “maintains a low level of locomotion activity suppressing also the peak due to change to dark condition”.
On to `CN1CCc2cccc3c2[C@H]1Cc1ccc(O)c(O)c1-3` [apomorphine, reference compound], for which the “locomotor activity (distance moved) versus vehicle” value in the test with zebra fish larvae [2] (apomorphine alone, 75 μM (FIG. 3) or 55 μM (FIG. 8), light conditions) is recorded as “clear increase of locomotor activity in light conditions”.
